Measurements from patent US10307410B2, “Mcl-1 modulating compounds for cancer treatment” (CENTRE REGIONAL DE LUTTE CONTRE LE CANCER FRANCOIS BACLESSE, priority 2014, dated 2019).

What was measured:
[1] = system: SKOV3 chemoresistant ovarian cancer cells; assay: Pyridoclax / ABT-737 association, apoptotic cell death; type: cell-based, human
Protocol: FIG. 4 represents the effect of the association of Pyridoclax with ABT-737 on chemoresistant ovarian cancer cells IGROV1-R10 (top) and SKOV3 (bottom). Cells were concomitantly (A, E) or sequentially (B) exposed to 25 μM Pyridoclax and 5 μM ABT-737, and cellular effects were assessed either longitudinally (A, B, E) or after 24 h (C, D, F). [A, B, E] real time cellular activity assessed by impedancmetry (xCELLigence technology), after concomitant exposure (A, E) or sequential exposure (B; 24 h Pyridoclax, then ABT-737). [C]: Cellular morphology and DNA content histograms after a 24 h concomitant exposure. [D and F]: PARP and caspase 3 cleavage after a 24 h concomitant exposure.
(§1) Adherent and floating cells were pooled, washed with 1×PBS and centrifuged at 200 g for 5 min before staining by Annexin V, propidium iodide or both, as recommended by the manufacturer (Roche Diagnostic, Indianapolis, USA). Briefly, 100 μl of Annexin V—Flit or propidium iodide or both were added on the cells pellet (10^6 cells) and incubated 15 minutes at room temperature in obscurity. 500 μl of sample buffer was then added on the suspensions that were thereafter analyzed using a Gallios flow cytometer (Beckman Coulter, Roissy, France) and cell cycle distribution was determined using Kaluza acquisition software (Beckman Coulter).
Cells were rinsed with ice-cold PBS, suspended in a lysis buffer [RIPA:NaCl 150 mM, Tris (pH 8) 50 mM, Triton X100 1%, PMSF 4 mM, EDTA 5 mM, NaF 10 mM, NaPPi 10 mM, Na3OV4 1 mM, aprotinin 0.5 μl/ml and 4.6 ml ultra pure water] and incubated on ice for 30 minutes. Lysates were collected after centrifugation (13200 g, 10 min, 4° C.) and protein concentrations were determined using the Bradford assay (Bio-Rad, Hercules, USA). 20 μg of protein were separated by SDS-PAGE on a 4-12% gradient polyacrylamide gel (Invitrogen, Cergy-Pontoise, France) and transferred to Hybond-PVDF membranes (Amersham, Orsay, France). […]

Mcl-1/Puma interaction = molecular target: T1, Mcl-1/Puma interaction (Homo sapiens, UniProt Q07820); assay: BRET assay, Mcl-1/Puma interaction; type: cell-based; conditions: BRET in Hela cells, 16 hours
T1 construct: expressed in transfected cells; host or cells: HeLa cells
T1 sequence (Q07820 whole entry): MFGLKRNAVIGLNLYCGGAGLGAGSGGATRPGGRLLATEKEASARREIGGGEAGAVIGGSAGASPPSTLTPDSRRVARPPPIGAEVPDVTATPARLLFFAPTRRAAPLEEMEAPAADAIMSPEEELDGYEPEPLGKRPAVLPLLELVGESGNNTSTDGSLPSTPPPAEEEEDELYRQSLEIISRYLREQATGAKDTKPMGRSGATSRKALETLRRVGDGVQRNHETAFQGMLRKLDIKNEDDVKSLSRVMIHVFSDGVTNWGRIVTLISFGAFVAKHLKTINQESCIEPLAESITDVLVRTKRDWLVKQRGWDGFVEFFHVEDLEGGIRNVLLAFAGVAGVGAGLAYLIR
Protocol: Hela cells were seeded on 6-well plates and transfected with 200 ng/well of plasmid pRLuc-Bax, pRLuc-Puma or pRLuc-Noxa coding for BRET donors and 1 µg/well of peYFP-Bcl-xL or peYFP-Mcl-1 coding for BRET acceptors (or with pCMV-Bcl-xL or pCMV-Mcl-1 for control). Twenty-four hours after transfection, cells were trypsinized and re-seeded into white 96 well plate flat bottom, incubated for another day, and then treated with drugs for 16 hours at 10 μM. Light emission at 485 nm and 530 nm was measured consecutively using the Mithras fluorescence-luminescence detector LB 940 (Berthold) after adding the luciferase substrate, coelenterazine H (Uptima) at a final concentration of 5 μM. BRET ratios were calculated as described [Terrillon et al. (2003) Mol Endocrinol 17, 677-691, Vo et al. (2012) Eur J Med Chem., 286-93].

[2] = system: IGROV1-R10 ovarian cancer cells; assay: Nuclear morphology after DAPI staining; type: cell-based; design: key to Apoptotic nuclear features: +: a few condensed or fragmented nuclei are observable after DAPI staining; ++: numerous condensed or fragmented nuclei are observable after DAPI staining (20-50%); +++: most of the nuclei are condensed or fragmented
Protocol: (§2) Exponentially growing cells were transfected by siRNA as described below, and after 48 h, cells were continuously exposed to (Het)aromatic oligosystems (10, 25 or 50 μM) dissolved in DMSO (<0.1% of total volume) for 4 to 24 supplementary hours.
(§3) Cells were seeded in 25 cm^2 flasks the day before to reach 30-50% confluency at the time of transfection. The transfection INTERFERin™ reagent (Polyplus Transfection, Strasbourg. France) was added to siRNA diluted in Opti-MEM® reduced serum medium (Invitrogen, Cergy-Pontoise, France) and complexes formation was allowed to proceed for 15 min at RT before being applied to cells. The final siRNA concentration in the flasks was 20 nM.
After treatment, both detached and adherent cells were pooled after trypsinization, applied to a polylysine-coated glass slide by cytocentrifugation and fixed with a solution of ethanol/chloroform/acetic acid (6:3:1). The preparations were then incubated for 15 min at room temperature with 1 μg/ml DAPI solution (Boehringer Mannheim-Roche, Mannheim, Germany), washed in distillated water, mounted under a coverslip in Mowiol (Calbiochem) and analyzed under a fluorescence microscope (BX51, Olympus, Rungis, France).
Cells were fixed with 2.5% glutaraldehyde in PBS buffer, included in agar, rinsed in Sorensen's buffer, post-fixed in osmium tetroxide 1% in Sorensen's buffer, deshydrated in ethanol and embedded in EPON resin. Ultrathin sections were cut and stained with uranyl acetate and lead citrate and examined using a JEOL1011 transmission electron microscope.

[3] = system: IGROV1-R10 ovarian cancer cells; assay: Cellular morphology / cell detachment, molecule alone or with Bcl-xL targeting siRNA; type: cell-based
Protocol: as §2, §3

[4] = system: IGROV1-R10 ovarian cancer cells; assay: Annexin V/propidium iodide flow cytometry; type: cell-based; conditions: IGROV1-R10, 10 nM siXL1 48 h then 25 μM Pyridoclax 24 h
Protocol: as §1

[5] = IGROV1-R10, Pyridoclax associated to siXL1

## Cc1cc(-c2ncc(-c3cccnc3)cc2/C=C/c2ccccc2)cnc1-c1cccnc1 [Pyridoclax, 5,6′-di(pyridin-3-yl)-5′-methyl-3-((E)-styryl)-2,3′-bipyridine]
[1]; SKOV3, 25 μM Pyridoclax + 5 μM ABT-737
  cell death, combination with ABT-737: massive apoptotic cell death
[1]; SKOV3, single agent
  cell death as single agent: neither ABT-737 nor Pyridoclax induced cell death as single agents
Mcl-1/Puma interaction; 10 μM
  effect on Mcl-1/Puma interaction: able to disrupt
Mcl-1/Puma interaction
  inhibition at 10 µM: ~50%
[2]; [5]
  nuclear morphology (DAPI staining and electron microscopy): nuclear condensations and fragmentations
[2]; Molecule + Bcl-xL targeting siRNA, DAPI staining
  Apoptotic nuclear features: +++
[3]; IGROV1-R10, Pyridoclax 10 μM associated to siXL1 (data not shown)
  effects in response to 10 μM: also observed in a lower extend
[3]; [5]
  Cell detachment: strong cell detachment
  concentration at which effects are optimal: 25 µM
[3]; IGROV1-R10, single agent
  cell death, agent on its own: neither Pyridoclax nor the Bcl-xL targeting siRNA (siXL1) induced massive cell death on their own
[4]
  fraction of annexin V positive cells: 60%
